According to ChEMBL document CHEMBL3301458, “MMV Malaria Box hERG screening”:
Activity calls are given as the source filed them. How the calls were made is not given here.

Experiments:
[1] = target: T1, hERG (Kv11.1, KCNH2) (Homo sapiens, UniProt Q12809); assay: in vitro
Description: MMV: Malaria Box compounds were tested for inhibition of the human ether a go-go related gene (hERG), Kv11.1 channel, using IonWorks 384-well patch clamp electrophysiology at 11.1uM (3 independent assay plates up to 12 cells per concentration).

[2] = target: T1, hERG (Kv11.1, KCNH2); assay: in vitro; remark: listed apart in the source
Description: MMV: Malaria Box compounds were tested for inhibition of the human ether a go-go related gene (hERG), Kv11.1 channel, using IonWorks 384-well patch clamp electrophysiology at 1.1uM (3 independent assay plates up to 12 cells per concentration).

T1 sequence (Q12809 whole entry): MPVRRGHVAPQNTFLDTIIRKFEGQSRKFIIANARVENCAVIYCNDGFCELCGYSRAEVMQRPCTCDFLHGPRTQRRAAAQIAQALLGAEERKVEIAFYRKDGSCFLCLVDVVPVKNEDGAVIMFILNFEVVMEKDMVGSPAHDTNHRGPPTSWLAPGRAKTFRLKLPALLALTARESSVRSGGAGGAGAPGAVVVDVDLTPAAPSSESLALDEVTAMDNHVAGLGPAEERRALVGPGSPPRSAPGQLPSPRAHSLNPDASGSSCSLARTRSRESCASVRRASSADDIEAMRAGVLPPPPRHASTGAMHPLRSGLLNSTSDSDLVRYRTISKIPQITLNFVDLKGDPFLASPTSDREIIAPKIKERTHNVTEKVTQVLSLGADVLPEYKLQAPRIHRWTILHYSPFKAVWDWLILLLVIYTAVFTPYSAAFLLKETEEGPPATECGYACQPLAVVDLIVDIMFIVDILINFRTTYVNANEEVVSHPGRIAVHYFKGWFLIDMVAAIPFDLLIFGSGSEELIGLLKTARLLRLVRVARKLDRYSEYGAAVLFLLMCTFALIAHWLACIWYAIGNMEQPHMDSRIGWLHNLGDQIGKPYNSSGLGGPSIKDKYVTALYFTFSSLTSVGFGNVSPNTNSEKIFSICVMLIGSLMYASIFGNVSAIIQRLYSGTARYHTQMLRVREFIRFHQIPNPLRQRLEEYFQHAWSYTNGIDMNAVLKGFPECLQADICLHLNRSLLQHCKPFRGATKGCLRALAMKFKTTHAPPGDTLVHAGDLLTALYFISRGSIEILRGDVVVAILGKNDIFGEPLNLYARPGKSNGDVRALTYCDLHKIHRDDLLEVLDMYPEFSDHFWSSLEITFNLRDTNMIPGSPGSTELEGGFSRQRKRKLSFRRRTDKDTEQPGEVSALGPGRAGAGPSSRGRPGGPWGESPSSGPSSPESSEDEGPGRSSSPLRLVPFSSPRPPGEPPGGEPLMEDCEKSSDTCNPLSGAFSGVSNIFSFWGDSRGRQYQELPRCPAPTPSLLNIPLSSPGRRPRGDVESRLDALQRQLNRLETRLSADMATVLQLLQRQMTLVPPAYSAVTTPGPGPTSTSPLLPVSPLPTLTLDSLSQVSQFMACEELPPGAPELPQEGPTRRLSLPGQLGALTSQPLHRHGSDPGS

SMILES	inhibition at 11.1 µM [1]	inhibition at 1.1 µM [2]
CC(C)c1ccc(CNCC(O)c2ccccc2)cc1 (stereo not given)	59% (active)	15%
Cc1ccc(Nc2nc(N)c3ccccc3n2)cc1Cl	85% (active)	5%
CCOc1ccc(CN2CCN(CC(O)COc3ccc(OCC(O)CN4CCN(Cc5ccc(OCC)cc5)CC4)cc3)CC2)cc1 (stereo not given)	83%	70%
O=C(NNc1cc(N2CCCC2)nc(N2CCCC2)n1)c1ccccc1	35%	4%
COc1cc(OC)c(N(C)C(=O)c2cc3c(s2)-c2ccccc2S(=O)(=O)C3)cc1Cl	41%	3%
CCOC(=O)c1ccc2[nH]c(-c3ccccc3)cc(=O)c2c1	7% (inactive)	-1%
OC(CNC1CCCCC1)Cn1c2ccc(I)cc2c2cc(I)ccc21 (stereo not given)	12% (inactive)	-5%
CCCCc1c(C)nc2c(OC)cccc2c1O	4% (inactive)	-9%
COc1ccc(Nc2nc(NCc3ccccc3)c3ccccc3n2)cc1	53% (active)	0%
CCOC(=O)c1c(NC(=O)c2ccccc2)sc2c(O)c(CN(CC)CC)ccc12	23% (inactive)	4%
Cc1ccnc(NC(c2cccc(OCc3ccccc3)c2)c2ccc3cccnc3c2O)c1 (stereo not given)	24% (inactive)	6%
CCN(CC)S(=O)(=O)c1ccc(-c2csc(Nc3ccc(C)c(C)c3)n2)cc1	-3% (inactive)	-7%
CCN1CCCC1CNc1[nH]cnc2c3cc(Cl)ccc3nc1-2 (stereo not given)	29%	6%
Cc1ccccc1OCCSc1nc2ccc(NC(=O)c3cccs3)cc2s1	24% (inactive)	12%
OC1=C2C(=Nc3ccccc3SC2c2ccccc2)c2ccccc21 (stereo not given)	16% (inactive)	15%
O=c1nc(C=Cc2ccc(Cl)cc2)oc2ccccc12	10% (inactive)	-5%
CC(C)(C)c1ccc(O)c(CNC2CCCCC2)c1	35%	10%
CCOc1ccc(CCNC(=O)c2cccs2)cc1OCC	13% (inactive)	9%
COc1ccccc1N1C(=N)SC(=Cc2ccc(OCc3ccccc3F)cc2)C1=O	24% (inactive)	18%
COc1ccc(C(=O)C(CCC(CNC(C)(C)C)C(=O)c2ccc(OC)cc2)CNC(C)(C)C)cc1 (stereo not given)	33%	9%
CCOC(=O)c1cnc2ccc(OC)cc2c1NCc1ccccc1	4% (inactive)	-2%
CN1CCN(c2c3c(c(C#N)c4nc5ccccc5n24)CCC3)CC1	45%	7%
Oc1c(CN2CCN(c3ccccc3F)CC2)cc(Br)c2cccnc12	46%	-9%
N=c1n(CCN2CCCCC2)c2ccccc2n1CC(=O)c1ccc(Cl)c(Cl)c1	-1% (inactive)	-13%
COc1ccc2nc(N)nc(C)c2c1	4% (inactive)	10%

SMILES	inhibition at 11.1 µM [1]	inhibition at 1.1 µM [2]
FC(F)(F)c1cccc(CNC2CCN(CCc3ccccc3)CC2)c1	97% (active)	4%
COc1cccc(Nc2nc(N)c3ccccc3n2)c1	9% (inactive)	10%
Nc1ccn([C@@H]2O[C@H](CO)[C@@H](O)[C@H]2O)c(=O)n1 [CYTIDINE]	8% (inactive)	0%
Cc1cccc(-n2ncc3c(O)nc(-n4nc(C)cc4NC(=O)c4cc5ccccc5o4)nc32)c1	-8% (inactive)	-3%
O=C(Nc1cccc(C2=NCCN2)c1)Nc1cccc(C2=NCCN2)c1 [IMIDOCARB]	110%	59%
COc1ccc(-c2nc(N3CCN(C(=O)C4CCCCC4)CC3)c3c4c(sc3n2)CCCC4)cc1	17% (inactive)	7%
CCOC(=O)C1=CN(C)C=C(C(=O)OCC)C1c1cc(Br)c(OCC)c(OC)c1	54% (active)	16%
CC1(c2ccccc2)Nc2ccccc2-c2nc3ccccc3n21 (stereo not given)	29%	-10%
CC(=O)c1sc(NC(=O)Nc2ccc(C)cc2C)nc1C	38%	7%
COc1ccc(C2NCCc3c2[nH]c2ccccc32)cc1CN1CCN(c2ccc(F)cc2)CC1 (stereo not given)	113% (active)	18%
Cc1cc(NCCN2CCCCC2)c2ccc3ccccc3c2n1	95% (active)	32%
CN(C)c1ccc(C(O)(c2ccc(N(C)C)cc2)c2ccc(N(C)C)cc2)cc1 [METHYLROSANILINE]	103% (active)	48%
Cc1sc(NC(=O)c2ccco2)c(C(c2cccnc2)N2CCC(Cc3ccccc3)CC2)c1C (stereo not given)	9% (inactive)	-12%
CN1CCN(c2nc(Nc3ccc(O)cc3)nc3ccccc23)CC1	31%	31%
CC(=O)NCCc1nc2ccccc2n1Cc1ccc(C(C)C)cc1	26%	6%
COc1ccc(CCN2CCC(CN(C)Cc3cnn(-c4ccccc4)c3)CC2)cc1	99% (active)	41%
CCOc1cc2c(cc1OCC)C(c1cc(Cl)c(O)c(OCC)c1)NCC2 (stereo not given)	57% (active)	1%
CC1CC2=C(CC1CNCCCN(C)C)C(C)(C)CCC2 (stereo not given)	77% (active)	-3%
COc1ccc2c(c1)C1(Nc3ccccc3-c3nc4ccccc4n31)C(=O)N2 (stereo not given)	20% (inactive)	4%
CCN(CC)c1ccc(NC(=O)c2cccs2)cc1	1% (inactive)	-1%
COc1cccc(C(=O)Nc2ccc(-c3nc4ccccc4[nH]3)cc2)c1	5% (inactive)	4%
Cc1cc(Nc2ccc(C)c(Cl)c2)n2nc(C(F)(F)F)nc2n1	72% (active)	23%
Oc1ccccc1CNCC12CC3CC(CC(C3)C1)C2	41%	20%
COc1cccc(O)c1CN1CCC2(CCCN(Cc3ccc(F)cc3)C2)C1 (stereo not given)	86% (active)	0%
COc1ccc(-c2cc3c(SCC(=O)Nc4cc(C(F)(F)F)ccc4Cl)nccn3n2)cc1	17% (inactive)	6%

SMILES	inhibition at 11.1 µM [1]	inhibition at 1.1 µM [2]
CCOC(=O)C1(Cc2ccccc2)CCN(Cc2cccc(OC)c2O)CC1	80% (active)	18%
CCN(CC)CCNc1ncnc2c1[nH]c1ccc(Cl)cc12	97%	99%
CN(C)CCCNc1c2ccccc2nc2ccccc12	31%	5%
CC(C)OCc1cc(CN2CCN(c3cccc(Cl)c3)CC2)c(O)c2ncccc12	100%	65%
O=C(NC(c1ccccc1)c1ccc2cccnc2c1O)c1ccccc1 (stereo not given)	17% (inactive)	1%
Cc1cc(Nc2ccc3ccccc3c2)n2ncnc2n1	25% (inactive)	9%
COc1ccccc1NC1=C(N2CCCCC2)C(=O)c2ccccc2C1=O	16% (inactive)	4%
Oc1c2c(nc3cc(-c4ccccc4)nn13)CCCC2	-2% (inactive)	2%
CCCN(CCC)CCCNC(=O)c1cc2c(-c3ccc(OC)c(OC)c3)nn(C)c2s1	47%	6%
CC1CC(C)CN(C(=O)c2ccc(Cl)cc2Cl)C1 (stereo not given)	5% (inactive)	-3%
Brc1ccc(Nc2nc3ccccc3nc2Nc2ccc(Br)cc2)cc1	2% (inactive)	2%
CCCc1c(C)nc2ccccc2c1O	7% (inactive)	-17%
Cc1ccc(N2C3c4ccccc4N(S(=O)(=O)c4ccc(C)cc4)C2c2ccccc2N3S(=O)(=O)c2ccc(C)cc2)cc1	18% (inactive)	18%
Cc1ccc(CSCc2ccc(C(=O)NC3CC3)o2)cc1	26%	2%
CCCc1c(C)nc2ccc(Br)cc2c1O	2% (inactive)	1%
Cc1cc(Nc2ccc(Cl)cc2)n2nc(C(F)(F)F)nc2n1	59% (active)	19%
COCCN(C(=O)Cc1cccs1)C(C(=O)NCc1ccc(OC)cc1)c1ccc(C(C)C)cc1 (stereo not given)	52% (active)	11%
COc1cccc(Cn2c(Oc3ccccc3)nc3c2c(=O)n(C)c(=O)n3C)c1	26%	-4%
Cc1ccc(C)c(Cn2c(N3CCC(C(=O)NCc4cccs4)CC3)nc3ccccc32)c1	84% (active)	16%
CCN(CC)CCNc1ccnc2cc(Cl)ccc12	61% (active)	18%
CCOc1cccc2sc(N(Cc3cccnc3)C(=O)C3CCCCC3)nc12	54% (active)	8%
COc1cc(C(=O)Nc2nc3c(cc4c5c(cccc53)CC4)s2)cc(OC)c1OC	23% (inactive)	10%
COc1cc(-c2nc(-c3ccc(Sc4ccccc4)cc3)c(-c3ccccc3)[nH]2)cc(OC)c1O	13% (inactive)	15%
COc1ccc(-c2nonc2NC(=O)c2cccc(Cl)c2)cc1OC	-4% (inactive)	4%
O=C(Nc1ccc(-c2nc3ccccc3[nH]2)cc1)c1ccc(Cl)c(Cl)c1	45%	2%
